Laboratory results published in patent publication US8846308B2, “Method for identifying immune response modulators” (The Trustees of the University of Pennsylvania, priority 2007, dated 2014).

Tested on: FOXP3
Test: Acetylation of chromatin-bound FOXP3 in HA-FOXP3a/3b transfected Jurkat T cells (immunoblot)
Format: cell-based, human
Settings: 1 ng TGF-β per million cells; serum-starved Jurkat T cells; between 2 and 4 hours after exposure; anti-acetyl lys immunoblot; FIG. 10B
Method: FIG. 10B is an image of an immunoblot of untreated and TGF-β treated, human HA-FOXP3a/3b transfected Jurkat T cells. The transfected cells were stimulated with or without 1 ng TGF-β per million cells for indicated time periods. Equal amounts of proteins from chromatin rich fractions were separated by SDS-PAGE, transferred to nitrocellulose, and immunoblotted with anti-acetyl lys specific antibody (Ac-K-103, Santa Cruz) followed by reprobing with anti-HA-HRP conjugated antibody. Acetylated FOXP3a and FOXP3b proteins are marked.
The effect of TGF-β on the acetylation of FOXP3 was examined. Serum-starved human HA-FOXP3a/3b transfected Jurkat T cells were stimulated with or without 1 ng TGF-β per million cells for indicated time periods. Equal amounts of proteins from chromatin rich fractions were separated by SDS-PAGE, transferred to nitrocellulose, and immunoblotted with anti-acetyl lys specific antibody (Ac-K-103, Santa Cruz) followed by reprobing with anti-HA-HRP conjugated antibody (FIG. 9B).

Substance: Transforming Growth Factor-β [TGF-β]
- chromatin-bound acetylated FOXP3: High levels of chromatin-bound acetylated FOXP3
